In ChEMBL document CHEMBL2321759, “A new target for an old drug: identifying mitoxantrone as a nanomolar inhibitor of PIM1 kinase via kinome-wide selectivity modeling” (J Med Chem, 2013) one finds IC50, Activity and inhibition data, which are given here for 4 molecules.

By IC50 is commonly meant the concentration at which inhibition is half-maximal.

Where a name gives a salt, the structure may show the parent alone. The source made the active and inactive calls. The rule behind the calls is not given here.

Assay [1] addresses T1, Serine/threonine-protein kinase pim-1 (Homo sapiens, UniProt P11309). In words: Inhibition of recombinant PIM1 (unknown origin) expressed in Escherichia coli BL21(DE3) after 1 hr by HTRF assay.
Target sequence in this assay (P11309 whole entry): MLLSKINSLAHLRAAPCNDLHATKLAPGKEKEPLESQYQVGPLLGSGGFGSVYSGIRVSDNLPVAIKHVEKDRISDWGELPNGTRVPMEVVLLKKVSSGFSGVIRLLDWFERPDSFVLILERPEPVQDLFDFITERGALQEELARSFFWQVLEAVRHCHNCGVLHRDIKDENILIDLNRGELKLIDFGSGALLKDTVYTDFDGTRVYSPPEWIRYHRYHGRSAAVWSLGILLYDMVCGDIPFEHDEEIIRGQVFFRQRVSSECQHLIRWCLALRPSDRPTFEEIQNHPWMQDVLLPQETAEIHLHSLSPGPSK
Assay [2] addresses T2, Tyrosine-protein kinase BTK (Homo sapiens, UniProt Q06187). In words: Inhibition of BTK (unknown origin) using [gamma33P]ATP assessed as residual activity at 1 uM after 120 mins by radiometric assay.
Assay [3] deals with T1, Serine/threonine-protein kinase pim-1. In words: Inhibition of PIM1-mediated BAD phosphorylation in human K562 cells after 12 hrs by Western blotting analysis. It counts as cell-based.
Target sequence in this assay (P11309 whole entry, looked up): as the sequence (P11309 whole entry) above
The test system of assay [4] is MV4-11. In words: Effect on total PIM1 level in human MV411 cells at 10 to 100 nM after 12 hrs by Western blotting analysis. Format: functional, cell-based. For orientation: A western blot detects proteins with antibodies after separation by electrophoresis.
Assay [5] concerns the target T1, Serine/threonine-protein kinase pim-1. In words: Inhibition of PIM1 (unknown origin) using [gamma33P]ATP assessed as residual activity at 1 uM after 120 mins by radiometric assayATP.
Target sequence in this assay (P11309 whole entry, looked up): as the sequence (P11309 whole entry) above
The target is the same in assay [6]. In words: Inhibition of PIM1-mediated BAD phosphorylation in human MV411 cells at 100 nM after 12 hrs by Western blotting analysis. The settings on record: MV4-11. It counts as cell-based.
Target sequence in this assay (P11309 whole entry, looked up): as the sequence (P11309 whole entry) above
Assay [7] shares this target. In words: Inhibition of PIM1-mediated BAD phosphorylation in human MV411 cells after 12 hrs by Western blotting analysis. The settings on record: MV4-11. Format: cell-based.
Target sequence in this assay (P11309 whole entry, looked up): as the sequence (P11309 whole entry) above
For assay [8] the target is unchanged. In words: Inhibition of PIM1-mediated BAD phosphorylation in human K562 cells at 0.1 to 30 uM after 12 hrs by Western blotting analysis. Format: cell-based.
Target sequence in this assay (P11309 whole entry, looked up): as the sequence (P11309 whole entry) above
The subject of assay [9] is MV4-11. In words: Effect on total BAD level in human MV411 cells at 10 to 100 nM after 12 hrs by Western blotting analysis. Format: functional, cell-based.
For assay [10], the target named is Serine/threonine-protein kinase Chk2 (Homo sapiens) (UniProt O96017). In words: Inhibition of CHK2 (unknown origin) using [gamma33P]ATP assessed as residual activity at 1 uM after 120 mins by radiometric assay.
The target in assay [11] is Casein kinase II subunit alpha' (Homo sapiens) (UniProt P19784). In words: Inhibition of CK2alpha2 (unknown origin) using [gamma33P]ATP assessed as residual activity at 1 uM after 120 mins by radiometric assay.
The target of assay [12] is RAC-alpha serine/threonine-protein kinase (Homo sapiens) (UniProt P31749). In words: Inhibition of AKT1 (unknown origin) using [gamma33P]ATP assessed as residual activity at 1 uM after 120 mins by radiometric assay.
A further assay concerns the target Casein kinase 2 (Homo sapiens, UniProt P67870+P68400+P19784+Q8NEV1). In words: Inhibition of human recombinant casein kinase 2 using [gamma-32P] ATP. Format: protein assay.
Assay [13] can be described thus: Inhibition of Mycobacterium tuberculosis protein kinase B.
Assay [14] deals with T2, Tyrosine-protein kinase BTK. In words: Inhibition of BTK (unknown origin).
Assay [15] deals with Platelet-derived growth factor receptor beta (Mus musculus, UniProt P05622). In words: Inhibition of mouse PDGFRbeta expressed in SF9 insect cells by TR-FRET assay. In general terms: Time-resolved FRET reads energy transfer from a long-lived donor to a nearby acceptor.
Chain of Platelet-derived growth factor receptor beta (P05622 whole entry): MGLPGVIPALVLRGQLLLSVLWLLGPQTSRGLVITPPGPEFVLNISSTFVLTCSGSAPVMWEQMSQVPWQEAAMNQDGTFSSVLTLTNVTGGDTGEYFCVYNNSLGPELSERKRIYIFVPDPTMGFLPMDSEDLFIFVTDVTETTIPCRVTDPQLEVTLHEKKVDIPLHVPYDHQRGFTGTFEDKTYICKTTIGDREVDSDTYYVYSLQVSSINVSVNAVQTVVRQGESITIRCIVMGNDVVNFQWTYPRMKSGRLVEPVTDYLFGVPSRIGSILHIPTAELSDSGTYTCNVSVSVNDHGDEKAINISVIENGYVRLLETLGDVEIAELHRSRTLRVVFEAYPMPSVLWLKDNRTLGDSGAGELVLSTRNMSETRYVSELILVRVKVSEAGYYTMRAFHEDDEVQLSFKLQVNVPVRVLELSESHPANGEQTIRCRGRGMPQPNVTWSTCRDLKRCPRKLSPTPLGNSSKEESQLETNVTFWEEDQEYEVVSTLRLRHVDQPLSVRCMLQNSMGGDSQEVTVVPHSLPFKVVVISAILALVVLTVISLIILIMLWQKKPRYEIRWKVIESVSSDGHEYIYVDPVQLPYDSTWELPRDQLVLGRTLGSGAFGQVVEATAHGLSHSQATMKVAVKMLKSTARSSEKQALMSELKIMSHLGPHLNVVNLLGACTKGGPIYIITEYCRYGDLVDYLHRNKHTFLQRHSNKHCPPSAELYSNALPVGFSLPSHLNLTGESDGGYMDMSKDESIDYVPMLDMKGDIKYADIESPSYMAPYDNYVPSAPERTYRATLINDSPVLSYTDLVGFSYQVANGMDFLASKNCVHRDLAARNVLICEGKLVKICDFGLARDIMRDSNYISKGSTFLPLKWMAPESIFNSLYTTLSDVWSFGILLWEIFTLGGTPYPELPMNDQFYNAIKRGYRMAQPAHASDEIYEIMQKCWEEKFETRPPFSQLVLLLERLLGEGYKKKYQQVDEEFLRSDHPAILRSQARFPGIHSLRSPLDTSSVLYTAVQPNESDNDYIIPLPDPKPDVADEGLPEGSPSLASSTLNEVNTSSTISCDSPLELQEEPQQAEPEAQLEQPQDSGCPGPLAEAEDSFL

T2 sequence (Q06187 whole entry): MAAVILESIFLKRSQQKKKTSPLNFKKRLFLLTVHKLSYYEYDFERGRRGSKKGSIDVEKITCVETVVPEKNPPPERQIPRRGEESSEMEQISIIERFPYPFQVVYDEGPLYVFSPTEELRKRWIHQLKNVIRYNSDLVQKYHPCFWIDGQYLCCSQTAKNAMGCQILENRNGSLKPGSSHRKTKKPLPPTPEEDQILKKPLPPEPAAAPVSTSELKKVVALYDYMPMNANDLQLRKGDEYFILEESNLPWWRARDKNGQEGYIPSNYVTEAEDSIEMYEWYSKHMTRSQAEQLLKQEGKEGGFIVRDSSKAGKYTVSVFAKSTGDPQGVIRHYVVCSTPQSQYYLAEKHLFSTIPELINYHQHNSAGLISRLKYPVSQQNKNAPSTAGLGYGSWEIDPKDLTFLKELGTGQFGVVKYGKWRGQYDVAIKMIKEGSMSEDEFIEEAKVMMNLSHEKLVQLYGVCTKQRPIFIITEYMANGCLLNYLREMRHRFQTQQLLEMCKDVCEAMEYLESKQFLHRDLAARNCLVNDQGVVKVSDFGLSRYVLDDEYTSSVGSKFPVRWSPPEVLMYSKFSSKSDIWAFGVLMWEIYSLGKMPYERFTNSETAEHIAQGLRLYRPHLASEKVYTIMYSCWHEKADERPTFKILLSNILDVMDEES
Chain of RAC-alpha serine/threonine-protein kinase (Homo sapiens) (P31749 whole entry): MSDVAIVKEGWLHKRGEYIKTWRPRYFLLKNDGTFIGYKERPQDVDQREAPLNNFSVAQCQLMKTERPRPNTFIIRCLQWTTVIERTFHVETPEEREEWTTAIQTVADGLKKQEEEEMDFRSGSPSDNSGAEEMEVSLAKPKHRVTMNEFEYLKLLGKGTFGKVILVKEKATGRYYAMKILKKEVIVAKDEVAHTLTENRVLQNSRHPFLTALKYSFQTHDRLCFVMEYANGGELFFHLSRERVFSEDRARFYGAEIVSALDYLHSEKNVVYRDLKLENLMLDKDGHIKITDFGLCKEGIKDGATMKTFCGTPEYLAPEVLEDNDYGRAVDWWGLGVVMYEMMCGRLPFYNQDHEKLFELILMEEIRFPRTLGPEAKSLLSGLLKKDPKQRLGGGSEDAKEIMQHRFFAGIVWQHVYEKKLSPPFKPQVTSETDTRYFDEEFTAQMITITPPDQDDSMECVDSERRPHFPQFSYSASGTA
Chain of Casein kinase II subunit alpha' (Homo sapiens) (P19784 whole entry, looked up): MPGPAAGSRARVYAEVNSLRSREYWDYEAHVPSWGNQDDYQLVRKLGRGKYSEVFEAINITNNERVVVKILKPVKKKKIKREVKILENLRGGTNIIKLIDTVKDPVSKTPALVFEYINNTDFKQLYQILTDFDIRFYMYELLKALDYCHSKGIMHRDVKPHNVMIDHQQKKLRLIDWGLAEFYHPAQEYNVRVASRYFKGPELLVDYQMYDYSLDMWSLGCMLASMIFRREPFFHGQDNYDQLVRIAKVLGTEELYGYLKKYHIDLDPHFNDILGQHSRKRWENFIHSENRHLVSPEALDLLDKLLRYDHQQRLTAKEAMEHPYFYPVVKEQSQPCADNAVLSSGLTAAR
Chain of Serine/threonine-protein kinase Chk2 (Homo sapiens) (O96017 whole entry): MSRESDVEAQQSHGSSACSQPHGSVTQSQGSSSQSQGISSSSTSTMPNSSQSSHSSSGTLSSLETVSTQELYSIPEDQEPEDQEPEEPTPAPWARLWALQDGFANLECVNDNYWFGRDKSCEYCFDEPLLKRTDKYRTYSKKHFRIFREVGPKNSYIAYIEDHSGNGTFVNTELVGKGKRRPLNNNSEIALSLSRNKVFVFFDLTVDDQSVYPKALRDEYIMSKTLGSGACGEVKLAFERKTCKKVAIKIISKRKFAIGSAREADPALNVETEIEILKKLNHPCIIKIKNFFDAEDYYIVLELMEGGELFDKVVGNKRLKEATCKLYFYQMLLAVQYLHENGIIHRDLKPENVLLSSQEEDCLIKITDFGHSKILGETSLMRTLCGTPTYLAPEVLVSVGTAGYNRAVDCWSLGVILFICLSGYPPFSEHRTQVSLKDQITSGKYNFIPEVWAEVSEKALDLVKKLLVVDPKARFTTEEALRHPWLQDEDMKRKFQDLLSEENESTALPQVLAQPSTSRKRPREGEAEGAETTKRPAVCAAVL

For `O=C1c2c(O)ccc(O)c2C(=O)c2c(NCCNCCO)ccc(NCCNCCO)c21` [MITOXANTRONE HYDROCHLORIDE], in assay [1], the half-maximal inhibitory concentration (IC50) turned out to be 50.9 nM.

On to `O=C1c2c(O)ccc(O)c2C(=O)c2c(NCCNCCO)ccc(NCCNCCO)c21`, for which the Activity in [2] came out at 45.9%; in assay [5] it was 0.86%; in assay [10], 59.7%; in [11], 81.8%; in assay [12], 109%. Further, the inhibition result in [3] and in assay [7] was “Dose-dependent effect” each time. Moreover, the outcome in the assay with MV4-11 [4] and with MV4-11 [9] was inactive. Also, the inhibition result in assay [6] and in assay [8] was “Active” throughout.

Regarding `O=C1c2c(O)ccc(O)c2C(=O)c2c(NCCNCCO)ccc(NCCNCCO)c21` [MITOXANTRONE], the IC50 on Casein kinase 2 was 660 nM; in [13] it was 800 nM; in assay [14] it was 1000 nM.

Turning to `CNC(=O)c1cc(Oc2ccc(NC(=O)Nc3ccc(Cl)c(C(F)(F)F)c3)cc2)ccn1` [SORAFENIB], the IC50 in [15] is less than 100 nM.
